Consider one compound from patent US20140235630A1, “COMPOSITIONS AND METHODS FOR THE TREATMENT OF PROLIFERATIVE DISEASES” (Beth Israel Deaconess Medical Center, Inc., priority 2011, published 2014).

The subject of one assay is HCC1937 cells. Put plainly: DNA damage response immunoblots with or without ionizing radiation (10 Gy). The assay is classed as cell-based, human. Here is the method:
FIG. 5A are immunoblots showing the effects of Compound A, ATM inhibitor KU-55933, and their combination on the DNA damage response. HCC1937 were treated for 18 hours with Compound A at 2.5 μM, KU55933 at 10 μM, or their combination, subjected to ionizing irradiation with 10 Gy or mock, lysed 6 hours later, and subjected to immunoblotting. […] Immunoblots were performed using the Nupage System (Invitrogen). The protein concentration was determined using Bradford reagent (Biorad). A total of 20 μg of protein were loaded, except for PAR, Phospho ATM and Phospho DNA-PK/PRKDC western blots, where 40 μg were loaded. Tumor tissue lysates were prepared similarly with the exception of tissue homogenization by using an electric homogenizer for 30 secs after addition of the lysis buffer. Primary antibodies used for western blotting were total AKT (9272), Cleaved […] 3 (9661), total ERK (4695), Phospho AKT Ser473 (4058), Phospho ERK Thr202/Tyr204 (9106), Phospho-Histone H2AX Ser139 (2577), PTEN (9559) from Cell Signaling. Phospho ATM […] (2152-1), Phospho DNA-PK/PRKDC […] (3892-1) from Epitomics, Inc. CD31 (ab28364), Actin (ab6276), INPP4B (ab81269) from Abcam; pADPr (sc56198) from Santacruz Biotechnology; and Ki-67 (RM-9106) was purchased from Thermo Scientific.

Assay [1] concerns breast cancer cells isolated from tumors of MMTV-CreBRCA1^f/fp53+/− mice. Put plainly: Rad51 foci immunofluorescence after ionizing radiation. The assay is classed as cell-based, mouse. To be noted: pre-treatment, 10 Gy, 6 hours post-irradiation. Here is the method:
FIGS. 5B-5E are immunofluorescence images of breast cancer cells isolated from primary tumors from MMTV-CreBRCA1^f/fp53+/− mice either treated with vehicle control (5B and 5C) or Compound A (5D and 5E) for 18 hours, followed by irradiation with 10 Gy IR 6 hours later cells, using antibodies against Rad51 and counterstained with DAPI. Rad51 foci are depicted as lighter punctuate signals within the cells (5C).
Cells were plated on coverslips in a 6-well plates and incubated overnight at 37° C. with 5% CO2 before drug treatment. Cells were exposed to 5-(2,6-dimorpholinopyrimidin-4-yl)-4-(trifluoromethyl)pyridin-2-amine (Compound A) for […] followed by irradiation (10 Gy). Cells were fixed with 3% paraformaldehyde and 2% sucrose diluted in PBS 6 h post-irradiation and subsequently permeabilized with 0.5% TritonX-100 buffer (20 mM HEPES pH7.4, 50 mM NaCl, 3 mM MgCl, 300 mM sucrose) for 3 minutes on ice. Cells were incubated with a primary rabbit anti human Rad-51 antiserum at 1:500 dilution in hybridization buffer (5% goat serum, 0.5% NaN3, 1×PBS) for 30 min at 37° C. and subsequently washed thrice in PBS before incubation with secondary antibody for 30 minutes at 37° C. Secondary antibody used was a donkey anti-rabbit Alexafluor 488 conjugated (Invitrogen) at a concentration of 1:50. […]

Assay [2] concerns tumor tissue of MMTV-CreBRCA1^f/fp53+/− mice. Description: Immunohistochemistry / immunoblot of tumor tissue for γH2AX, Ki67, p-ERK. As to conditions: in vivo treated tumors. More on the design: species or system mouse. Here is the method:
FIG. 4B are immunohistochemical images of pre-treatment biopsies and post-Compound A treatment tumor tissues with antibodies against p-ERK, Ki67, and γH2AX showing an in vivo increase of γH2AX-positive cells after treatment with Compound A and proliferative activity at the “pushing margin.” Tumor-bearing mice were subjected to a pre-treatment biopsy and then treated with Compound A at 50 mg/kg/day. FIG. 6E are immunoblots with antibodies against actin, p-AKT, and γH2AX of tumor tissues harvested from animals 3 hours after last treatment with Compound A (30 mg/kg/day), Compound B (50 mg/kg/day), or their combination. FIG. 8A are immunohistochemical images of tumor tissues obtained from tumor-bearing […] pre-treatment (left column of images), at Day 10 of treatment (middle column of images), and post-treatment tissue at the time of progression (right column of images) following treatment with a combination of Compound A and Compound B. FIG. 8B is a graph of Ki67 (right bar graph in each treatment group) and γH2AX (left bar graph in each treatment group) levels in tumor biopsies in pre-treatment, on-treatment, and post-treatment at the time of progression groups. Ki67 and γH2AX were scored by counting and averaging the number of positive nuclei per high-power field (HPF). […] The protein concentration was determined using Bradford reagent (Biorad). […]

In the case of `Nc1cc(C(F)(F)F)c(-c2cc(N3CCOCC3)nc(N3CCOCC3)n2)cn1` [Compound A, 5-(2,6-dimorpholinopyrimidin-4-yl)-4-(trifluoromethyl)pyridin-2-amine], the “H2AX phosphorylation in response to ionizing radiation” value with HCC1937 cells (18 hours pre-treatment, 10 Gy, lysed 6 hours later) was “prominent augmentation”. Besides, the “auto-phosphorylation of DNA-PK” value in the assay on HCC1937 cells (Compound A 2.5 μM, 18 hours) is recorded as “strong increase”. Also, in the assay with HCC1937 cells (Compound A 2.5 μM, KU55933 10 μM), the PAR accumulation result is listed as “increased”. For the same compound, in the assay on HCC1937 cells (pre-treatment, 10 Gy), the “Rad51 accumulation in response to ionizing radiation” value was “failure to increase Rad51”. In assay [1], the “formation of Rad51 foci in response to ionizing radiation” value is on record as “completely blocked”. Further, the “percentage of tumor cells that express γH2AX / γH2AX in tumor lysates” value in assay [2] is recorded as “substantial increase”.
